Experimental data taken from ChEMBL document CHEMBL5291721, “A preclinical secondary pharmacology resource illuminates target-adverse drug reaction associations of marketed drugs” (Nat Commun, 2023).

Columns and labels:
[1] = target: T1, Progesterone receptor (Homo sapiens, UniProt P06401)
T1 sequence (P06401 whole entry): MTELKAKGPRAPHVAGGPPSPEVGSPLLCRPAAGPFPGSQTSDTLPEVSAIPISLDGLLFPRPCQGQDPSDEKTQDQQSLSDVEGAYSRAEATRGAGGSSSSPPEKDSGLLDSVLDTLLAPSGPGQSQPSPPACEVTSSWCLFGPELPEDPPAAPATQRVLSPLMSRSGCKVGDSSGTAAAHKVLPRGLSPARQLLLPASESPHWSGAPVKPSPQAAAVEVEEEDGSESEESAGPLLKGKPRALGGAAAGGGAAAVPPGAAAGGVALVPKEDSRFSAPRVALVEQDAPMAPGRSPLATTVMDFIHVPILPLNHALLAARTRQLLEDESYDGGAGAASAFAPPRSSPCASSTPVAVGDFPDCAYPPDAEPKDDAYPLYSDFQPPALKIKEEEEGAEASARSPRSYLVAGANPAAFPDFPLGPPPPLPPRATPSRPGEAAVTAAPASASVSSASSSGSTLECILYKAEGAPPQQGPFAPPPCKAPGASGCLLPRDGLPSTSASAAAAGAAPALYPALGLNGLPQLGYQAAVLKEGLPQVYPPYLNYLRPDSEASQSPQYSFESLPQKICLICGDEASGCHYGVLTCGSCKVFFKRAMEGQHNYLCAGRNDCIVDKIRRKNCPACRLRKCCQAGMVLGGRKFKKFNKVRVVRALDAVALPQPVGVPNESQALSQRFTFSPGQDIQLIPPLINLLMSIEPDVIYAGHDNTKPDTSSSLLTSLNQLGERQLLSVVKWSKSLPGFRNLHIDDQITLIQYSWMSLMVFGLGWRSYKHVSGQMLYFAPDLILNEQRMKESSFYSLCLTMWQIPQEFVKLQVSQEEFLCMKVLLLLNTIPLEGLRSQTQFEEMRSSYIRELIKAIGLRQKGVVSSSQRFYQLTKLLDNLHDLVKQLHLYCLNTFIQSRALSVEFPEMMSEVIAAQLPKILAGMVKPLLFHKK

[2] = target: T2, B1 bradykinin receptor (Homo sapiens, UniProt P46663)
T2 sequence (P46663 whole entry): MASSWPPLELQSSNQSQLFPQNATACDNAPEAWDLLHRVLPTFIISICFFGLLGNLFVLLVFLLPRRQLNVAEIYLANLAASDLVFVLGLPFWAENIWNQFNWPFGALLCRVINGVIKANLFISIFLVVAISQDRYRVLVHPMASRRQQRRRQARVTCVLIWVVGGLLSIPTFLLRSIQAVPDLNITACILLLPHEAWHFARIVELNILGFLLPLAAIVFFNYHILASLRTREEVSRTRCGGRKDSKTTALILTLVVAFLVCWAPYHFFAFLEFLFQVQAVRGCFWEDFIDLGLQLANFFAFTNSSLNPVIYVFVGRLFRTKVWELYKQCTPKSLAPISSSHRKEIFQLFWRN

[3] = target: Neurotensin receptor type 1 (Homo sapiens, UniProt P30989)
[4] = target: T3, Endothelin receptor type B (Homo sapiens, UniProt P24530)
T3 sequence (P24530 whole entry): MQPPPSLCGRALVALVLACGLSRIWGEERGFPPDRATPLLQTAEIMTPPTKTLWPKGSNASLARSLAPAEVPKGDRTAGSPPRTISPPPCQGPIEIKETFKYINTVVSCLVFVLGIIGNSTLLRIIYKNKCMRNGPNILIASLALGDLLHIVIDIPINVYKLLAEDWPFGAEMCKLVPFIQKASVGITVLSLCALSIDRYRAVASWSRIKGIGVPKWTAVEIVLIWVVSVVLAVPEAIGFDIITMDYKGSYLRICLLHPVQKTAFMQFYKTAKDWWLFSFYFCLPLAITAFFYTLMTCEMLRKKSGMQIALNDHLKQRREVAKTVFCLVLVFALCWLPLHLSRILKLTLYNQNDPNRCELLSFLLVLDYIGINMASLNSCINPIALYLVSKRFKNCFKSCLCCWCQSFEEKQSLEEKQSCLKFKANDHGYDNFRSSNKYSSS

[5] = target: Glucagon receptor (Homo sapiens, UniProt P47871)
[6] = target: T4, Neuropeptide Y receptor type 2 (Homo sapiens, UniProt P49146)
T4 sequence (P49146 whole entry): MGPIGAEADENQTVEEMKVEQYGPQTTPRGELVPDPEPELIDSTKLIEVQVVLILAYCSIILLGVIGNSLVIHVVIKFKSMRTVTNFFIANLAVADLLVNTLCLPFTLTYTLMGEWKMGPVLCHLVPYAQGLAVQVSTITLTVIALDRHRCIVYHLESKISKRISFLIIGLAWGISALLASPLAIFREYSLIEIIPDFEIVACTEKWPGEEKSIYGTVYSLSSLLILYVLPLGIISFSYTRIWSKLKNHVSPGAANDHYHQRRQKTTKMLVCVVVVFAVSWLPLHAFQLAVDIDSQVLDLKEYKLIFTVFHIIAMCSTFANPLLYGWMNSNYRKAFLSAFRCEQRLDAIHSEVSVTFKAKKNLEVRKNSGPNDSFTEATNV

[7] = target: T5, 5-hydroxytryptamine receptor 1A (Homo sapiens, UniProt P08908)
T5 sequence (P08908 whole entry): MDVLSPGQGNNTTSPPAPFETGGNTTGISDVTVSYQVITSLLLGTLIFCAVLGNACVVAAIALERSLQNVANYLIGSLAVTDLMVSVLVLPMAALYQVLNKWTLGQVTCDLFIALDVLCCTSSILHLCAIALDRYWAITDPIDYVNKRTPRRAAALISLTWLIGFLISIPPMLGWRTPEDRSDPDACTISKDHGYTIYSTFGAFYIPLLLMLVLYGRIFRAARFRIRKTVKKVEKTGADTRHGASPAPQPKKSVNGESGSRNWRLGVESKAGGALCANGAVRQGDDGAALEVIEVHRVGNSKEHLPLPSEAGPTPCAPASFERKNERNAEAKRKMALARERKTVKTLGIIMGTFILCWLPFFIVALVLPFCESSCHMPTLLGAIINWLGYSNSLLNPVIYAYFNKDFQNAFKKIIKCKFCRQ

[8] = target: 5-hydroxytryptamine receptor 2B (Homo sapiens, UniProt P41595)
[9] = target: Gamma-aminobutyric acid receptor subunit alpha-1 (Rattus norvegicus, UniProt P62813)
Note: assay procedure not described here.

Chain of 5-hydroxytryptamine receptor 2B (P41595 whole entry): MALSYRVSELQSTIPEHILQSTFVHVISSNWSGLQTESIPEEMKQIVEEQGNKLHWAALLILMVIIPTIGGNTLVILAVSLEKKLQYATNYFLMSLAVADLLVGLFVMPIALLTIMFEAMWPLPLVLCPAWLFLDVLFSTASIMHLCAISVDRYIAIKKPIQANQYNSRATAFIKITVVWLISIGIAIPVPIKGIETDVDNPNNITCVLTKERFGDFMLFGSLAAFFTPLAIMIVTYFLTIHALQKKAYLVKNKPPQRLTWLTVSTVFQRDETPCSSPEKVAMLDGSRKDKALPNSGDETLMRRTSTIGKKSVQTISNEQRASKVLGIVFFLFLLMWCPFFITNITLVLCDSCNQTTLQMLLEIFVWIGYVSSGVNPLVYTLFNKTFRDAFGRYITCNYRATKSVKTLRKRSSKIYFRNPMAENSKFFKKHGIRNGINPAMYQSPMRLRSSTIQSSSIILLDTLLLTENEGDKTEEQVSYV
Chain of Glucagon receptor (P47871 whole entry): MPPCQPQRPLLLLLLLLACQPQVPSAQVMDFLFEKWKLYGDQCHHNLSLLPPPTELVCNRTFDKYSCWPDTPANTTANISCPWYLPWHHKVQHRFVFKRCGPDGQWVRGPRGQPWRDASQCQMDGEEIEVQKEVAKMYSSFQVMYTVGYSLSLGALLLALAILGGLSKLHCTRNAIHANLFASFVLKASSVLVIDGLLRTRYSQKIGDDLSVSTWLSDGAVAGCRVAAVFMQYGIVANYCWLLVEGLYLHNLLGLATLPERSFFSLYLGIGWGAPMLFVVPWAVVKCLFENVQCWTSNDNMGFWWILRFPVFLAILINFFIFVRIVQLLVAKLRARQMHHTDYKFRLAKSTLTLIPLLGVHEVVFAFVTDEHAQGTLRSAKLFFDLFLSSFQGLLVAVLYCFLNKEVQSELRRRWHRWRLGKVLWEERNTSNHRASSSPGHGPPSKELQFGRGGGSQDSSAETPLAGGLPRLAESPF
Chain of Neurotensin receptor type 1 (P30989 whole entry): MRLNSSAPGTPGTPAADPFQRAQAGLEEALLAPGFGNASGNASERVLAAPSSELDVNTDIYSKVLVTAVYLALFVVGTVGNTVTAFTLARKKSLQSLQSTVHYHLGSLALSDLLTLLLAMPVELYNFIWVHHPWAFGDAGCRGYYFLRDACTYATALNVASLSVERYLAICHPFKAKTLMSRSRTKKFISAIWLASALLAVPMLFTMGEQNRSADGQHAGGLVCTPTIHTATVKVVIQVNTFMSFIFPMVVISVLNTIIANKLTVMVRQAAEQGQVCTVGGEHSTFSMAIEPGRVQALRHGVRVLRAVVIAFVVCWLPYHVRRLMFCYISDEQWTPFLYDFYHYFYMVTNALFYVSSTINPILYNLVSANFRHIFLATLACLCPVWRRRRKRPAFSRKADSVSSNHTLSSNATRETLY
Chain of Gamma-aminobutyric acid receptor subunit alpha-1 (P62813 whole entry): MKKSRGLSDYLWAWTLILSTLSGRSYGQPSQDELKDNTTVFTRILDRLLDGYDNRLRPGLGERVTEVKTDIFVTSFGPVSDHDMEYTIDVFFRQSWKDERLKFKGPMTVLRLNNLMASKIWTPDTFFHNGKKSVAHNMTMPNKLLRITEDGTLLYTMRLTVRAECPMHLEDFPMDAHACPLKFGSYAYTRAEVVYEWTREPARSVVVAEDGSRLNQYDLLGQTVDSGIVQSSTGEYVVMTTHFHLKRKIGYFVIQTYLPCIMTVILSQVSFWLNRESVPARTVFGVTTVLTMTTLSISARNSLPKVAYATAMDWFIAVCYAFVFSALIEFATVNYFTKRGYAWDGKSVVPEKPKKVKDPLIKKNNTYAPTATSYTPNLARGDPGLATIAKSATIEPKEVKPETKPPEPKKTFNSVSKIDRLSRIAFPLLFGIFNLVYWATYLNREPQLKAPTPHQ

For O=C(O)c1cn(C2CC2)c2cc(N3CCNCC3)c(F)cc2c1=O [CIPROFLOXACIN], which AC50 [1] is on record?
The AC50 was > 30 µM.

And the AC50 [2]?
The AC50 was > 30 µM.

And the AC50 [3]?
Its AC50 is > 30 µM.

What about the AC50 [4] of the same compound?
The AC50 was > 30 µM.

And the AC50 [5]?
The AC50 was > 30 µM.

And the AC50 [6]?
Its AC50 is > 30 µM.

Which results are given for CC(CCc1ccc(O)cc1)NCCc1ccc(O)c(O)c1 (centres undefined) [DOBUTAMINE]?
AC50 [1]: > 30 µM; AC50 [2]: > 30 µM; AC50 [7]: > 10 µM; AC50 [8]: > 10 µM; AC50 [3]: > 30 µM; AC50 [4]: > 30 µM; AC50 [5]: > 30 µM; AC50 [6]: > 30 µM

CCC(=O)O[C@]1(C(=O)SCF)[C@H](C)C[C@H]2[C@@H]3C[C@H](F)C4=CC(=O)C=C[C@]4(C)[C@@]3(F)[C@@H](O)C[C@@]21C [FLUTICASONE PROPIONATE] was tested. Which AC50 [9] did it give?
Its AC50 is > 30 µM.

What about the AC50 [2] of the same compound?
Its AC50 is > 30 µM.

And the AC50 [7]?
The AC50 was > 10 µM.

And the AC50 [8]?
The AC50 was > 10 µM.

What about the AC50 [3] of the same compound?
Its AC50 is > 30 µM.

What about the AC50 [4] of the same compound?
Its AC50 is > 30 µM.

And the AC50 [5]?
The AC50 was > 30 µM.

And the AC50 [6]?
The AC50 was > 30 µM.

Cc1cnc(C(=O)NCCc2ccc(S(=O)(=O)NC(=O)NC3CCCCC3)cc2)cn1 [GLIPIZIDE] was tested. Which AC50 [1] did it give?
Its AC50 is > 30 µM.

What about the AC50 [2] of the same compound?
Its AC50 is > 30 µM.

And the AC50 [7]?
Its AC50 is > 10 µM.

And the AC50 [3]?
The AC50 was > 30 µM.

What about the AC50 [4] of the same compound?
The AC50 was > 30 µM.

What about the AC50 [5] of the same compound?
Its AC50 is > 30 µM.

And the AC50 [6]?
Its AC50 is > 30 µM.

Which results are given for CC(C)NCC(O)c1ccc(O)c(O)c1 (centres undefined) [ISOPROTERENOL]?
AC50 [1]: > 30 µM; AC50 [2]: > 30 µM; AC50 [7]: > 10 µM; AC50 [8]: > 10 µM; AC50 [3]: > 30 µM; AC50 [4]: > 30 µM; AC50 [5]: > 30 µM; AC50 [6]: > 30 µM

For CN1CCN(C2=Nc3ccccc3Oc3ccc(Cl)cc32)CC1 [LOXAPINE], which AC50 [1] is on record?
The AC50 was > 30 µM.

What about the AC50 [9] of the same compound?
The AC50 was > 30 µM.

What about the AC50 [2] of the same compound?
The AC50 was > 30 µM.

What about the AC50 [7] of the same compound?
Its AC50 is 33.1 µM.

What about the AC50 [3] of the same compound?
Its AC50 is > 30 µM.

What about the AC50 [4] of the same compound?
Its AC50 is > 30 µM.

What about the AC50 [5] of the same compound?
The AC50 was > 30 µM.

And the AC50 [6]?
Its AC50 is > 30 µM.

How did the AC50 [1] turn out when OC1(c2ccc(Cl)cc2)c2ccccc2C2=NCCN21 (centres undefined) [MAZINDOL] was run?
The AC50 was > 30 µM.

And the AC50 [2]?
Its AC50 is > 30 µM.

And the AC50 [7]?
Its AC50 is > 10 µM.

What about the AC50 [8] of the same compound?
The AC50 was > 10 µM.

And the AC50 [3]?
Its AC50 is > 30 µM.

What about the AC50 [4] of the same compound?
Its AC50 is 33.1 µM.

What about the AC50 [5] of the same compound?
The AC50 was > 30 µM.

And the AC50 [6]?
Its AC50 is > 30 µM.

How did the AC50 [1] turn out when CC12CC3CC(C)(C1)CC(N)(C3)C2 [MEMANTINE] was run?
Its AC50 is > 30 µM.

What about the AC50 [2] of the same compound?
Its AC50 is > 30 µM.

And the AC50 [7]?
The AC50 was > 10 µM.

And the AC50 [3]?
The AC50 was > 30 µM.

What about the AC50 [4] of the same compound?
The AC50 was > 30 µM.

And the AC50 [5]?
The AC50 was > 30 µM.

What about the AC50 [6] of the same compound?
The AC50 was > 30 µM.

With CCOC(=O)C1=C(C)NC(C)=C(C(=O)OC)C1c1cccc([N+](=O)[O-])c1 (centres undefined) [NITRENDIPINE] as the compound, how does the AC50 [1] read?
Its AC50 is > 30 µM.

What about the AC50 [2] of the same compound?
The AC50 was > 30 µM.

What about the AC50 [7] of the same compound?
The AC50 was > 10 µM.

What about the AC50 [8] of the same compound?
The AC50 was > 10 µM.

And the AC50 [3]?
Its AC50 is > 30 µM.

And the AC50 [4]?
The AC50 was > 30 µM.

What about the AC50 [5] of the same compound?
Its AC50 is > 30 µM.

What about the AC50 [6] of the same compound?
The AC50 was > 30 µM.

With [H]/N=C(/N)N/C(=N/[H])NCCc1ccccc1 [PHENFORMIN] as the compound, how does the AC50 [1] read?
The AC50 was > 30 µM.

And the AC50 [2]?
Its AC50 is > 30 µM.

And the AC50 [7]?
The AC50 was > 10 µM.

And the AC50 [8]?
Its AC50 is 8.9 µM.

What about the AC50 [3] of the same compound?
The AC50 was > 30 µM.

And the AC50 [4]?
The AC50 was > 30 µM.

And the AC50 [5]?
Its AC50 is > 30 µM.

And the AC50 [6]?
The AC50 was > 30 µM.

With CC(N)C(O)c1ccccc1 (centres undefined) [PHENYLPROPANOLAMINE] as the compound, how does the AC50 [1] read?
Its AC50 is > 30 µM.

What about the AC50 [2] of the same compound?
The AC50 was > 30 µM.

And the AC50 [7]?
The AC50 was > 10 µM.

And the AC50 [8]?
Its AC50 is > 10 µM.

And the AC50 [3]?
Its AC50 is > 30 µM.

And the AC50 [4]?
Its AC50 is > 30 µM.

What about the AC50 [5] of the same compound?
The AC50 was > 30 µM.

What about the AC50 [6] of the same compound?
The AC50 was > 30 µM.
